{"source": "patent US8067243B2", "about": "(priority 2008, dated 2011)", "key": {"[1]": {"details": "drug screen, cited from earlier work"}, "[2]": {"details": "human, in vivo"}, "[3]": {"details": "in vivo, cited from earlier work"}, "[4]": {"details": "in vivo; cited from earlier work"}}, "note": "Like-named read-outs stand apart in the source and are kept apart here.", "data": [{"smiles": "CCC1(CCC(C)C)C(=O)NC(=O)NC1=O", "note": "[Amobarbital]", "values": [{"measurement": "Retention Time", "setting": "[1]", "result": "1 to 7", "unit": "days"}]}, {"smiles": "CC(N)Cc1ccccc1", "note": "(centres unmarked) [Amphetamine]", "values": [{"measurement": "Retention Time", "setting": "[1]", "result": "1 to 2", "unit": "days"}]}, {"smiles": "C=CCC1(C(C)C)C(=O)NC(=O)NC1=O", "note": "[Aprobarbital]", "values": [{"measurement": "Retention Time", "setting": "[1]", "result": "1 to 7", "unit": "days"}]}, {"smiles": "CCC(C)C1(CC)C(=O)NC(=O)NC1=O", "note": "(centres unmarked) [Butabarbital]", "values": [{"measurement": "Retention Time", "setting": "[1]", "result": "1 to 7", "unit": "days"}]}, {"smiles": "C=CCC1(CC(C)C)C(=O)NC(=O)NC1=O", "note": "[Butalbital]", "values": [{"measurement": "Retention Time", "setting": "[1]", "result": "0.042 to 2", "unit": "days"}]}, {"smiles": "CN1[C@H]2CC[C@@H]1[C@@H](C(=O)O)[C@@H](OC(=O)c1ccccc1)C2", "note": "[Cocaine metabolite]", "values": [{"measurement": "Retention Time", "setting": "[1]", "result": "1 to 2", "unit": "days"}]}, {"smiles": "COc1ccc2c3c1O[C@H]1[C@@H](O)C=C[C@H]4[C@@H](C2)N(C)CC[C@@]341", "note": "[Codeine]", "values": [{"measurement": "Result (urine concentration)", "setting": "[2]", "result": 327, "unit": "ng/mL"}, {"measurement": "time to peak plasma concentration", "setting": "[3]; po", "result": "one"}]}, {"smiles": "CCO", "note": "[Ethanol]", "values": [{"measurement": "Retention Time", "setting": "[1]", "result": "0.083 to 0.583", "unit": "days"}]}, {"smiles": "COc1ccc2c3c1O[C@H]1C(=O)CC[C@H]4[C@@H](C2)N(C)CC[C@]314", "note": "[Hydrocodone]", "values": [{"measurement": "Result (urine concentration)", "setting": "[2]", "result": 864, "unit": "ng/mL"}, {"measurement": "Retention Time", "setting": "[4]", "result": "1 to 3", "unit": "days"}, {"measurement": "detection of free drug in urine by LC/MS/MS after administration", "setting": "[4]", "result": 3, "unit": "days"}]}, {"smiles": "CCOC(=O)C1(c2ccccc2)CCN(C)CC1", "note": "[Meperidine]", "values": [{"measurement": "Retention Time", "setting": "[4]", "result": "1 to 2", "unit": "days"}, {"measurement": "plasma half-life", "setting": "[3]", "result": 3, "unit": "h"}]}, {"smiles": "CN1CC[C@]23c4c5ccc(O)c4O[C@H]2[C@@H](O)C=C[C@H]3[C@H]1C5", "note": "[Morphine]", "values": [{"measurement": "Result (urine concentration)", "setting": "[2]", "result": 104, "unit": "ng/mL"}, {"measurement": "dose excreted in urine as morphine-3-glucuronide", "setting": "[3]", "result": 70, "unit": "%"}]}, {"smiles": "CCOC(=O)C1(c2ccccc2)CCNCC1", "note": "[Normeperidine]", "values": [{"measurement": "plasma half-life", "setting": "[3]", "result": 20, "unit": "h"}]}, {"smiles": "COc1ccc2c3c1O[C@H]1C(=O)CC[C@@]4(O)[C@@H](C2)N(C)CC[C@]314", "note": "[Oxycodone]", "values": [{"measurement": "Result (urine concentration)", "setting": "[2]", "result": 544, "unit": "ng/mL"}, {"measurement": "Retention Time", "setting": "[4]", "result": "1 to 3", "unit": "days"}, {"measurement": "Retention Time (SR)", "setting": "[4]", "result": "(SR 2-4 days)"}, {"measurement": "detection of free drug in urine by LC/MS/MS after administration", "setting": "[4]", "result": "up to 3 days"}, {"measurement": "detection of free drug in urine by LC/MS/MS after slow-release dosage form", "setting": "[4]", "result": "up to 4 days"}, {"measurement": "oral dose eliminated in urine as oxymorphone", "setting": "[3]; po", "result": "about 14%"}, {"measurement": "oral dose eliminated in urine as total oxycodone", "setting": "[3]; po", "result": "approximately 60%"}]}, {"smiles": "CN1CC[C@]23c4c5ccc(O)c4O[C@H]2C(=O)CC[C@@]3(O)[C@H]1C5", "note": "[Oxymorphone]", "values": [{"measurement": "Result (urine concentration)", "setting": "[2]", "result": 223, "unit": "ng/mL"}, {"measurement": "Retention Time", "setting": "[4]", "result": "1 to 3", "unit": "days"}, {"measurement": "Retention Time (SR)", "setting": "[4]", "result": "(SR 2-4 days)"}, {"measurement": "detection of free drug in urine by LC/MS/MS after administration", "setting": "[4]", "result": "up to 3 days"}, {"measurement": "detection of free drug in urine by LC/MS/MS after slow-release dosage form", "setting": "[4]", "result": "up to 4 days"}, {"measurement": "dose excreted in urine", "setting": "[3]", "result": "About 49%"}]}, {"smiles": "CCCC(C)C1(CC)C(=O)NC(=O)NC1=O", "note": "(centres unmarked) [Pentobarbital]", "values": [{"measurement": "Retention Time", "setting": "[1]", "result": "0.042 to 1", "unit": "days"}]}, {"smiles": "c1ccc(C2(N3CCCCC3)CCCCC2)cc1", "note": "[Phencyclidine]", "values": [{"measurement": "Retention Time, Chronic Use", "setting": "[1]; chronic use", "result": "up to 30 days"}, {"measurement": "Retention Time", "setting": "[1]", "result": 8, "unit": "days"}]}, {"smiles": "C=CCC1(C(C)CCC)C(=O)NC(=O)NC1=O", "note": "(centres unmarked) [Secobarbital]", "values": [{"measurement": "Retention Time", "setting": "[1]", "result": "0.042 to 1", "unit": "days"}]}, {"smiles": "CC(=O)Oc1ccc2c3c1O[C@H]1[C@@H](OC(C)=O)C=C[C@H]4[C@@H](C2)N(C)CC[C@@]341", "note": "[heroin, diacetyl morphine]", "values": [{"measurement": "heroin dose excreted as morphine-3-glucuronide", "setting": "[3]", "result": "Approximately 42%"}]}]}
